Usually pIC50 stands for the IC50 on a negative log10 scale, so that one unit is a factor of ten. Broadly, the MIC is the lowest concentration that inhibits growth of the organism.

pIC50: −log10 of the molar value.

One assay concerns HepG2. Description: Cytotoxicity against human HepG2 cells assessed as reduction in cell viability after 72 hrs by MTT assay. The class given is functional, cell-based. The settings on record: for pIC50: Homo sapiens, HepG2, 72 h, read-out: IC50. For orientation: Tetrazolium assays rely on reduction of a dye to a coloured formazan, in cell work by metabolically active cells.
For the next assay, the system named is HCT-116. Description: Cytotoxicity against human HCT-116 cells assessed as reduction in cell viability after 72 hrs by MTT assay. The note with it: for pIC50: Homo sapiens, HCT-116, 72 h, read-out: IC50. It counts as functional, cell-based.
For a further assay, the system named is MCF7. Description: Cytotoxicity against human MCF7 cells assessed as reduction in cell viability after 72 hrs by MTT assay. It counts as functional, cell-based. The settings on record: for pIC50: Homo sapiens, MCF7, 72 h, read-out: IC50.
Another assay deals with Edwardsiella tarda. The experiment in a line: Antibacterial activity against […] QDIO-10 assessed as reduction in microbial growth by microtiter plate reader assay. It counts as functional.
Another assay relates to Vibrio parahaemolyticus. The experiment in a line: Antibacterial activity against Vibrio parahaemolyticus QDIO-8 assessed as reduction in microbial growth by microtiter plate reader assay. The class given is functional.
For another assay, the system named is Escherichia coli. Description: Antibacterial activity against Escherichia coli EMBLC-1 assessed as reduction in microbial growth by microtiter plate reader assay. The class given is functional.

Regarding `C=C1[C@@H](C)[C@H]2[C@H](Cc3ccccc3)NC(=O)[C@]23C(=O)/C=C/[C@H](O)CCC[C@@H](C)C/C=C/[C@H]3[C@@H]1O` [DEOXAPHOMIN], the pIC50 in the assay on HepG2 was 5.15; with HCT-116, 5.12; in the assay on MCF7, 5.15.

Regarding `C[C@H]1C/C=C/[C@H]2[C@@H]3O[C@]3(C)[C@@H](C)[C@H]3[C@H](Cc4ccccc4)NC(=O)[C@]32OC(=O)/C=C/[C@H](O)CCC1`, the MIC with Edwardsiella tarda turned out to be 8 mg/L.

In the case of `C=C1[C@@H](C)[C@H]2[C@H](Cc3ccccc3)NC(=O)[C@]23OC(=O)/C=C/[C@H](O)CCC[C@@H](C)C/C=C/[C@H]3[C@@H]1O` [CYTOCHALASIN B], the MIC in the assay on Vibrio parahaemolyticus amounted to 4 mg/L. Besides, the pIC50 with HepG2 was 5.02; with HCT-116, 4.92; with MCF7 it was 5.28.

As to `C=C1[C@@H](C)[C@H]2[C@H](Cc3ccccc3)NC(=O)[C@]23OC(=O)/C=C/CCCC[C@@H](C)C/C=C/[C@H]3[C@@H]1O`, the IC50 result with HepG2 (hepg2), in the assay with HCT-116 (hct-116) and in the assay with MCF7 (mcf7) was “Not Active” each time.

For `C=C1[C@@H](C)[C@H]2[C@H](Cc3ccccc3)NC(=O)[C@]23OC(=O)[C@@H](S[C@H]2CC(=O)CCC[C@@H](C)C/C=C/[C@H]4[C@H](O)C(=C)[C@@H](C)[C@H]5[C@H](Cc6ccccc6)NC(=O)[C@]54OC2=O)CC(=O)CCC[C@@H](C)C/C=C/[C@H]3[C@@H]1O`, the MIC in the assay with Escherichia coli was 2 mg/L.

For the compound `C=C1[C@@H](C)[C@H]2[C@H](Cc3ccccc3)NC(=O)[C@]23OC(=O)/C=C/[C@H](O)[C@H](O)CC[C@@H](C)C/C=C/[C@H]3[C@@H]1O`, the MIC in the assay with Edwardsiella tarda was 8 mg/L. Also, the pIC50 was 5.19 in the assay with HepG2, 5.02 with HCT-116 and 5.22 with MCF7.

On to `O=C(N[C@H](CO)[C@H](O)c1ccc([N+](=O)[O-])cc1)C(Cl)Cl` [CHLORAMPHENICOL], for which the values for the minimal inhibitory concentration (MIC) in the assay on Vibrio parahaemolyticus and with Edwardsiella tarda were 2 mg/L and 0.5 mg/L, respectively.

The values above are taken from ChEMBL document CHEMBL4840374, “Cytochalasin Derivatives from the Endozoic Curvularia verruculosa CS-129, a Fungus Isolated from the Deep-Sea Squat Lobster Shinkaia crosnieri Living in the Cold Seep Environment” (J Nat Prod, 2021).
